Read-outs that look alike come from different tables or passages of the source. Values belong to the compound of their own block, whether it stands above or below them. Where a SMILES comes first, the peptide text is derived from it. Bridges are numbered along the chain shown (N, C = ends). [ ]: non-standard residue; d: D form. Phe(4-Cl) = N[C@@H](Cc1ccc(Cl)cc1)C(=O)O; Dap = NC[C@H](N)C(=O)O
How the values were obtained:
P-selectin = molecular target: T1, P-selectin (Homo sapiens, UniProt P16109); assay: Inhibition of human neutrophil adhesion to purified P-selectin immobilized on plastic wells; format: cell-based; conditions: for IC50: inhibiting the binding of human neutrophils to P-selectin; for biological activity / inhibiting neutrophil adhesion to P-selectin (result in words): human neutrophils, purified human P-selectin
T1 construct: P-selectin is isolated from human platelet lysates; from tissue; host or cells: human platelets (outdated platelet packs from a blood bank)
T1 sequence (P16109 42-830): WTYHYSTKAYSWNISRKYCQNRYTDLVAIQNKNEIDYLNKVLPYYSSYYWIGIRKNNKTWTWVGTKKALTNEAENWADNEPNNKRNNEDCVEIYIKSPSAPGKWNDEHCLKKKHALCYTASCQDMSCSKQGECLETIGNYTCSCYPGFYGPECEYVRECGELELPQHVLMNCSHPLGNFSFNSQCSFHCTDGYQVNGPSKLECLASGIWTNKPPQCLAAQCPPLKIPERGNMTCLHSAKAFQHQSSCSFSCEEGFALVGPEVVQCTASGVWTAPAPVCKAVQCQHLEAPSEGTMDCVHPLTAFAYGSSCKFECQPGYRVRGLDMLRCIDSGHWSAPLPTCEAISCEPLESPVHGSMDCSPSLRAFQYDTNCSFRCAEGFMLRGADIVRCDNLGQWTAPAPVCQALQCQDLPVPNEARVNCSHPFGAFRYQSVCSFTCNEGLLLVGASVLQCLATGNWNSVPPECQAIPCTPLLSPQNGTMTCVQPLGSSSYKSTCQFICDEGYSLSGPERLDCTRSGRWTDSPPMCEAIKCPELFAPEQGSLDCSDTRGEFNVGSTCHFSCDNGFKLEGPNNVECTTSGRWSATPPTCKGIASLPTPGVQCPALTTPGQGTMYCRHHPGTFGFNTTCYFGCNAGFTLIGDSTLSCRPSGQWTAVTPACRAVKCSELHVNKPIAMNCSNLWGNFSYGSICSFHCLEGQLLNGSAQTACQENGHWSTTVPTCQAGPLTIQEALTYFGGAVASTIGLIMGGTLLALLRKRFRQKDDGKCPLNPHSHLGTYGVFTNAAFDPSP
How it was run: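 Isolated human neutrophils (2×10^5 per well) in HBSS with Ca2+/Mg2+ and HSA added to wells coated overnight at 4° C with platelet-derived P-selectin (5 micrograms/mL), HSA-blocked; 20 min at 22° C. Nonadherent cells removed by inverted centrifugation at 150 g; adherent cells quantified by myeloperoxidase activity.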

- IC50 (P-selectin): 1.5 µM
Compound: CC(C)[C@@H](NC(=O)[C@@H](Cc1c[nH]c2ccccc12)NC(=O)[C@H](NC(=O)[C@@H](Cc1c[nH]c2ccccc12)NC(=O)[C@H]1CSSC[C@@H](NC(=O)[C@@H](CCCCN)NC(=O)[C@H](N)CCCNC(=N)N)C(=O)NCC(=O)N[C@@H](Cc2ccc(Cl)cc2)C(=O)N1)[C@H](C)O)C(N)=O [(115)] (H-[dR][dK][dC]G[Phe(4-Cl)][dC][dW][dT][dW][dV]-NH2; disulfide 3-6)

- IC50 (P-selectin): 4.6 µM
Compound: CC(C)[C@@H](NC(=O)[C@@H](Cc1c[nH]c2ccccc12)NC(=O)[C@H](NC(=O)[C@@H](Cc1c[nH]c2ccccc12)NC(=O)[C@H]1CSSC[C@@H](NC(=O)[C@@H](CCCCN)NC(=O)[C@H](N)CCCNC(=N)N)C(=O)NCC(=O)N[C@H](C(C)C)C(=O)N1)[C@H](C)O)C(N)=O [(116)] (H-[dR][dK][dC]G[dV][dC][dW][dT][dW][dV]-NH2; disulfide 3-6)

- IC50 (P-selectin): 238 µM
Compound: CC(C)[C@@H](NC(=O)[C@@H](Cc1c[nH]c2ccccc12)NC(=O)[C@H](NC(=O)[C@@H](Cc1c[nH]c2ccccc12)NC(=O)[C@H]1CSSC[C@@H](NC(=O)[C@@H](CCCCN)NC(=O)[C@H](N)CC(=O)O)C(=O)NCC(=O)N[C@@H](Cc2ccccc2)C(=O)N1)[C@H](C)O)C(N)=O [(117)] (H-[dD][dK][dC]GF[dC][dW][dT][dW][dV]-NH2; disulfide 3-6)

- IC50 (P-selectin): 115 µM
Compound: CC[C@H](C)[C@@H]1NC(=O)[C@H](CCCCN)NC(=O)[C@@H](N)CCC(=O)NCCCC[C@@H](C(=O)N[C@@H](Cc2c[nH]c3ccccc23)C(=O)N[C@H](C(=O)N[C@@H](Cc2c[nH]c3ccccc23)C(=O)N[C@H](C(N)=O)C(C)C)[C@@H](C)O)NC(=O)CNC(=O)CNC1=O [Preferred peptide (1), Cyclo(glutamyl-lysyl-isoleucyl-glycyl-glycyl-lysyl)-tryptophyl-threonyl-tryptophyl-valine-amide] (H-EKIGGKWTWV-NH2; lactam 1-6)

- concentration at which active in inhibiting neutrophil adhesion to P-selectin (P-selectin; stated in text as 'active at'): 13 mM
Compound: CC(C)[C@H](NC(=O)[C@H](Cc1c[nH]c2ccccc12)NC(=O)[C@@H](NC(=O)[C@H](Cc1c[nH]c2ccccc12)NC(=O)[C@@H]1CC(=O)NC[C@H](NC(=O)[C@H](CCCCN)NC(=O)[C@@H](N)CCCNC(=N)N)C(=O)NCC(=O)NCC(=O)N1)[C@@H](C)O)C(N)=O [Preferred peptide (22), Arginyl-lysyl-cyclo(diaminopropionyl-glycyl-glycyl-aspartyl)-tryptophyl-threonyl-tryptophyl-valine-amide] (H-RK[Dap]GGDWTWV-NH2; lactam 3-6)

- biological activity / inhibiting neutrophil adhesion to P-selectin (result in words) (P-selectin): inactive
Compound: CC[C@H](C)[C@H](NC(=O)[C@H](CCCCN)NC(=O)[C@@H](N)CCCNC(=N)N)C(=O)NCC(=O)NCC(=O)N[C@H]1CCCCNC(=O)CC[C@@H](C(N)=O)NC(=O)[C@H](Cc2c[nH]c3ccccc23)NC(=O)[C@H]([C@@H](C)O)NC(=O)[C@H](Cc2c[nH]c3ccccc23)NC1=O [SEQ ID NO:1, Arg-Lys-Ile-Gly-Gly-cyclo(Lys-Trp-Thr-Trp-Glu)-NH2] (H-RKIGGKWTWE-NH2; lactam 6-10)

- biological activity / inhibiting neutrophil adhesion to P-selectin (result in words) (P-selectin): inactive
Compound: CC[C@H](C)[C@H](NC(=O)[C@H](CCCCN)NC(=O)[C@@H](N)CCCNC(=N)N)C(=O)NCC(=O)NCC(=O)N[C@H]1CCC(=O)NCCCC[C@@H](C(N)=O)NC(=O)[C@H](Cc2c[nH]c3ccccc23)NC(=O)[C@H]([C@@H](C)O)NC(=O)[C@H](Cc2c[nH]c3ccccc23)NC1=O [SEQ ID NO:2, Arg-Lys-Ile-Gly-Gly-cyclo(Glu-Trp-Thr-Trp-Lys)-NH2] (H-RKIGGEWTWK-NH2; lactam 6-10)

- biological activity / inhibiting neutrophil adhesion to P-selectin (result in words) (P-selectin): totally inactive
Compound: CC(C)[C@H](NC(=O)[C@H](Cc1c[nH]c2ccccc12)NC(=O)[C@@H](NC(=O)[C@H](Cc1c[nH]c2ccccc12)NC(=O)[C@@H]1CNC(=O)C[C@H](NC(=O)[C@H](CCCCN)NC(=O)[C@@H](N)CCCNC(=N)N)C(=O)NCC(=O)NCC(=O)N1)[C@@H](C)O)C(N)=O [SEQ ID NO:3, Arg-Lys-cyclo(Asp-Gly-Gly-Dap)-Trp-Thr-Trp-Val-NH2] (H-RKDGG[Dap]WTWV-NH2; lactam 3-6)

Second part, the compound before the results:

Compound: CC(C)[C@@H](NC(=O)[C@@H](Cc1c[nH]c2ccccc12)NC(=O)[C@H](NC(=O)[C@@H](Cc1c[nH]c2ccccc12)NC(=O)[C@H]1CSSC[C@@H](NC(=O)[C@@H](CCCCN)NC(=O)[C@H](N)CCCNC(=N)N)C(=O)NCC(=O)N[C@@H](Cc2ccccc2)C(=O)N1)[C@H](C)O)C(N)=O
- ring closure, yield of all isomers (from CC(C)[C@@H](NC(=O)[C@@H](Cc1c[nH]c2ccccc12)NC(=O)[C@H](NC(=O)[C@@H](Cc1c[nH]c2ccccc12)NC(=O)[C@@H](CS)NC(=O)[C@H](Cc1ccccc1)NC(=O)CNC(=O)[C@@H](CS)NC(=O)[C@@H](CCCCN)NC(=O)[C@H](N)CCCNC(=N)N)[C@H](C)O)C(N)=O, disulfide bond, DMSO, water, 0.253 mM, 16.0 h): 10.8%

Compound: CC(C)[C@@H](NC(=O)[C@@H](Cc1c[nH]c2ccccc12)NC(=O)[C@H](NC(=O)[C@@H](Cc1c[nH]c2ccccc12)NC(=O)[C@H]1CSSC[C@@H](NC(=O)[C@@H](CCCCN)NC(=O)[C@H](N)CCCNC(=N)N)C(=O)NCCC(=O)N[C@@H](Cc2ccccc2)C(=O)N1)[C@H](C)O)C(N)=O
- ring closure, yield of all isomers (from CC(C)[C@@H](NC(=O)[C@@H](Cc1c[nH]c2ccccc12)NC(=O)[C@H](NC(=O)[C@@H](Cc1c[nH]c2ccccc12)NC(=O)[C@@H](CS)NC(=O)[C@H](Cc1ccccc1)NC(=O)CCNC(=O)[C@@H](CS)NC(=O)[C@@H](CCCCN)NC(=O)[C@H](N)CCCNC(=N)N)[C@H](C)O)C(N)=O, disulfide bond, air, Cu wire, ammonium acetate pH 8.5, water, 0.842 mM, 22.0 h): 8.1%

Compound: CC(C)[C@H](NC(=O)[C@@H](Cc1c[nH]c2ccccc12)NC(=O)[C@H](NC(=O)[C@@H](Cc1c[nH]c2ccccc12)NC(=O)[C@H]1CSSC[C@@H](NC(=O)[C@@H](CCCCN)NC(=O)[C@H](N)CCCNC(=N)N)C(=O)NCC(=O)N[C@@H](Cc2ccccc2)C(=O)N1)[C@H](C)O)C(N)=O
- ring closure, yield of all isomers (from CC(C)[C@H](NC(=O)[C@@H](Cc1c[nH]c2ccccc12)NC(=O)[C@H](NC(=O)[C@@H](Cc1c[nH]c2ccccc12)NC(=O)[C@@H](CS)NC(=O)[C@H](Cc1ccccc1)NC(=O)CNC(=O)[C@@H](CS)NC(=O)[C@@H](CCCCN)NC(=O)[C@H](N)CCCNC(=N)N)[C@H](C)O)C(N)=O, disulfide bond, DMSO, water, 0.161 mM): 9.4%

Compound: CC(C)[C@H](NC(=O)[C@H](Cc1c[nH]c2ccccc12)NC(=O)[C@@H](NC(=O)[C@H](Cc1c[nH]c2ccccc12)NC(=O)[C@@H]1CC(=O)NC[C@H](NC(=O)[C@H](CCCCN)NC(=O)[C@@H](N)CCCNC(=N)N)C(=O)NCC(=O)NCC(=O)N1)[C@@H](C)O)C(N)=O
- ring closure, yield of all isomers (amide bond, BOP/HOBt/DIEA, NMP, 80.0 h, 9 steps): 8.5%

Compound: CC[C@@H](C)[C@H]1NC(=O)[C@H](NC(=O)[C@H](N)CCCNC(=N)N)CSSC[C@H](C(=O)N[C@@H](C(=O)N[C@H](Cc2c[nH]c3ccccc23)C(=O)N[C@@H](C(=O)N[C@H](Cc2c[nH]c3ccccc23)C(=O)N[C@@H](C(N)=O)C(C)C)[C@H](C)O)[C@H](C)CC)NC(=O)CNC1=O [(4)] (H-[dR][dC][dI]G[dC][dI][dW][dT][dW][dV]-NH2; disulfide 2-5)
- ring closure, yield of all isomers (from CC[C@@H](C)[C@@H](NC(=O)[C@@H](CS)NC(=O)[C@H](N)CCCNC(=N)N)C(=O)NCC(=O)N[C@H](CS)C(=O)N[C@@H](C(=O)N[C@H](Cc1c[nH]c2ccccc12)C(=O)N[C@@H](C(=O)N[C@H](Cc1c[nH]c2ccccc12)C(=O)N[C@@H](C(N)=O)C(C)C)[C@H](C)O)[C@H](C)CC, disulfide bond, DMSO, water, 0.405 mM, 16.0 h): 43.1%
- IC50 (P-selectin): 41 µM

Compound: CC(C)[C@H](NC(=O)[C@H](Cc1c[nH]c2ccccc12)NC(=O)[C@@H](NC(=O)[C@H](Cc1c[nH]c2ccccc12)NC(=O)[C@@H]1CSSC[C@H](NC(=O)[C@H](CCCCN)NC(=O)[C@@H](N)CCCNC(=N)N)C(=O)NCC(=O)NCC(=O)N1)[C@@H](C)O)C(N)=O [(9)] (H-RKCGGCWTWV-NH2; disulfide 3-6)
- ring closure, yield of all isomers (from CC(C)[C@H](NC(=O)[C@H](Cc1c[nH]c2ccccc12)NC(=O)[C@@H](NC(=O)[C@H](Cc1c[nH]c2ccccc12)NC(=O)[C@H](CS)NC(=O)CNC(=O)CNC(=O)[C@H](CS)NC(=O)[C@H](CCCCN)NC(=O)[C@@H](N)CCCNC(=N)N)[C@@H](C)O)C(N)=O, disulfide bond, DMSO, water, 0.456 mM, 16.0 h): 4.4%
- IC50 (P-selectin): 3 µM

Compound: CC(C)[C@@H](NC(=O)[C@@H](Cc1c[nH]c2ccccc12)NC(=O)[C@H](NC(=O)[C@@H](Cc1c[nH]c2ccccc12)NC(=O)[C@H]1CSSC[C@@H](NC(=O)[C@@H](CCCCN)NC(=O)[C@H](N)CCCNC(=N)N)C(=O)N[C@H](CCC(N)=O)C(=O)N[C@@H](CCC(N)=O)C(=O)N1)[C@H](C)O)C(N)=O [(114)] (H-[dR][dK][dC][dQ]Q[dC][dW][dT][dW][dV]-NH2; disulfide 3-6)
- IC50 (P-selectin): 12.1 µM
